Experimental data reported in publication PMC10997755, “Discovery of a small-molecule inhibitor that traps Polθ on DNA and synergizes with PARP inhibitors” (Nature Communications, 2024).
Read-outs that look alike come from different tables or passages of the source. One block for each compound: values may come before it.

Columns and labels:
[1] = molecular target: T1, Polθ-pol (Homo sapiens, UniProt O75417); test: Cy5 fluorescence Polθ-pol DNA synthesis (strand displacement) IC50 assay; assay type: biochemical; conditions: Polθ-pol DNA synthesis, Cy5 fluorescence
T1 construct: purified recombinant human Polθ-pol (comprising amino acid residues 1792–2590); made in house
T1 sequence (O75417 1792-2590): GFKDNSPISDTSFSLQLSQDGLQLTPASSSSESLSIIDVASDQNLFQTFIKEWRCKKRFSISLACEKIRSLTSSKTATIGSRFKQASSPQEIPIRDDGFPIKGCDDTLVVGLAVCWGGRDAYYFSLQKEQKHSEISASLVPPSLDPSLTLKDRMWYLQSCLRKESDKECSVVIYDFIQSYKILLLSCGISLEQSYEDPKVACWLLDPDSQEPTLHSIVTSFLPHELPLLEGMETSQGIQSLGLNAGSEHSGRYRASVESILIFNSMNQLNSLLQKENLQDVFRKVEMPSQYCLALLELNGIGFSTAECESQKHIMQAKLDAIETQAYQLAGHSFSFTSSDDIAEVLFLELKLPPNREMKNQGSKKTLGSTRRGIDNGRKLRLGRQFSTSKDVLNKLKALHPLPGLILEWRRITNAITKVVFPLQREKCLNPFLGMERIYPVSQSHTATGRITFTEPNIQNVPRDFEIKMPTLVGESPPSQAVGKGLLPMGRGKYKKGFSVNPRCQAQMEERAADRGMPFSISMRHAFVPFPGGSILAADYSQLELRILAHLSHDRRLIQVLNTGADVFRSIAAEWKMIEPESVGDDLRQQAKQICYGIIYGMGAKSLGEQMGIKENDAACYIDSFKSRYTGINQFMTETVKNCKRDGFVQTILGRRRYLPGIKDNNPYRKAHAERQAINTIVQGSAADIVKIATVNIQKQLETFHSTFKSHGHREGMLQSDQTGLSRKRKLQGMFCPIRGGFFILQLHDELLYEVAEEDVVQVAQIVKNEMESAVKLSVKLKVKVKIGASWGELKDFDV
Method: The following Cy5 fluorescence assay was used to measure the ability of compounds to inhibit Polθ-pol in vitro. The fluorescent based assay was performed as follows: 60 nM of the pre-annealed primer-template containing a 5’ Cy5 fluorophore conjugated template strand (RP486-Cy5), a downstream complementary oligo conjugated with a 3’ Iowa BlackReg Dark quencher (RP343BHQRQ) and a primer strand (RP469D) was mixed with 50 uM 2'-deoxyribonucleoside triphosphates (dNTPs), 0.1 mg/mL Bovine serum albumin (BSA), 0.01% NP-40, 10% glycerol, 1 mM dithiothreitol (DTT), 10 mM MgCl2, 25 mM TrisHCl pH 7.8 in the presence of 2.5% DMSO with or without various concentrations (7-point dilution series) of Polθ-pol small-molecule inhibitors at 37 °C in a volume of 40 μL. The reactions were initiated by the addition of 5 nM of purified recombinant human Polθ-pol (comprising amino acid residues 1792–2590). The reactions were terminated by the addition of 20 mM EDTA after 18 min, and the Cy5 fluorescence intensity was measured using a CLARIOstar (BMG Labtech) plate reader. Reactions were performed in triplicate and the % inhibition at each concentration of the respective compound of Formula I was based on the mean.

[2] = test system: DLD1 Parental cells; test: Clonogenic assay; assay type: cell-based; conditions: DLD1 Parental
Method: (§1) Cells were plated on six or twelve or twenty-four well plates. In six well plate, 1000 cells/ well of BRCA2 -/-, BRCA1 -/-, PALB2 mut and 500 cells/ well of wildtype pair was plated; In twelve well plate, 600 cells/ well of BRCA2 -/-, BRCA1 -/-, PALB2 mut and 400 cells/ well of wildtype pair was plated; In twenty-four well plate, 500 cells/ well of BRCA2 -/-, BRCA1 -/-, PALB2 mut and 300 cells/ well of wildtype pair was plated. For MEFs, 300 cells per well in six-well plate were seeded. The medium was replaced every 2 days until the colonies were ready for staining in 10–12 days. For staining: Medium was removed from plates, and cells were rinsed with PBS. Fixation was carried out with—Water: Ethanol: Acetic acid (5:4:1) for 30 min followed by staining of colonies with 0.5% crystal violet in Water: Ethanol (3:2) for 2 h at room temperature. The plates were rinsed with water and left for drying overnight at room temperature. Colonies were then counted and IC50 was calculated using results from 3 or more independent experiments. Response curves are shown as mean colony formation +/- S.E.M.

[3] = test system: DLD1 BRCA2 -/- cells; test: Clonogenic assay; assay type: cell-based; conditions: for Average (colonies): DLD1 BRCA2 -/-; for IC50: DLD1 cells, label beside BRCA2-null curve, read-out: IC50 clonogenic survival; for potency in BRCA2-null cells compared with RTx-161: clonogenic survival
Method: as §1
Data are expressed as mean ± SEM from at least 3 independent experiments with triplicates for each condition unless stated otherwise. When conducting comparison between two groups, two-tailed unpaired t-test was used. Significance was assumed at p < 0.05. Asterisks in the figures indicate significance, ^∗p < 0.05, ^∗∗p < 0.01, ^∗∗∗p < 0.001. Combenefit® software version 2.021 was used to perform synergy analyses for drug combinations between RTx-161 and PARPi. GraphPad Prism 9 software was used to calculate IC50.

IC50 [1]: 11.4 nM
Compound: Cc1cccc(N(C)C(=O)[C@@H]2[C@H](O)CCN2c2nc(C)cc(C(F)(F)F)c2C#N)c1 [ART558, reference compound]
Average (colonies) ([2]; 0.1875 uM, block 1 of sheet): 47.5 | Average (colonies) ([2]; 0.1875 uM, block 2 of sheet): 42 | Average (colonies) ([2]; 0.1875 uM, block 3 of sheet): 77 | Average (colonies) ([2]; 0.375 uM, block 1 of sheet): 51 | Average (colonies) ([2]; 0.375 uM, block 2 of sheet): 61 | Average (colonies) ([2]; 0.375 uM, block 3 of sheet): 80 | Average (colonies) ([2]; 0.75 uM, block 1 of sheet): 39.5 | Average (colonies) ([2]; 0.75 uM, block 2 of sheet): 41.5 | Average (colonies) ([2]; 0.75 uM, block 3 of sheet): 76.5 | Average (colonies) ([2]; 1.5 uM, block 1 of sheet): 42.5 | Average (colonies) ([2]; 1.5 uM, block 2 of sheet): 44.5 | Average (colonies) ([2]; 1.5 uM, block 3 of sheet): 77.5 | Average (colonies) ([2]; 3 uM, block 1 of sheet): 58.5 | Average (colonies) ([2]; 3 uM, block 2 of sheet): 36.5 | Average (colonies) ([2]; 3 uM, block 3 of sheet): 78.5 | Average (colonies) ([2]; 6 uM, block 1 of sheet): 42.5 | Average (colonies) ([2]; 6 uM, block 2 of sheet): 59 | Average (colonies) ([2]; 6 uM, block 3 of sheet): 76.5 | Average (colonies) ([2]; 12 uM, block 2 of sheet): 57.5 | Average (colonies) ([2]; 12 uM, block 3 of sheet): 79 | Average (colonies) ([3]; 0.1875 uM, block 1 of sheet): 21.5 | Average (colonies) ([3]; 0.1875 uM, block 2 of sheet): 41.5 | Average (colonies) ([3]; 0.1875 uM, block 3 of sheet): 18 | Average (colonies) ([3]; 0.375 uM, block 1 of sheet): 24.5 | Average (colonies) ([3]; 0.375 uM, block 2 of sheet): 37.5 | Average (colonies) ([3]; 0.375 uM, block 3 of sheet): 18.5 | Average (colonies) ([3]; 0.75 uM, block 1 of sheet): 10.5 | Average (colonies) ([3]; 0.75 uM, block 2 of sheet): 31 | Average (colonies) ([3]; 0.75 uM, block 3 of sheet): 18.5 | Average (colonies) ([3]; 1.5 uM, block 1 of sheet): 15.5 | Average (colonies) ([3]; 1.5 uM, block 2 of sheet): 30.5 | Average (colonies) ([3]; 1.5 uM, block 3 of sheet): 20.5 | Average (colonies) ([3]; 3 uM, block 1 of sheet): 14 | Average (colonies) ([3]; 3 uM, block 2 of sheet): 22.5 | Average (colonies) ([3]; 3 uM, block 3 of sheet): 15 | Average (colonies) ([3]; 6 uM, block 1 of sheet): 6.5 | Average (colonies) ([3]; 6 uM, block 2 of sheet): 28.5 | Average (colonies) ([3]; 6 uM, block 3 of sheet): 8 | Average (colonies) ([3]; 12 uM, block 2 of sheet): 11.5 | Average (colonies) ([3]; 12 uM, block 3 of sheet): 6 | IC50 ([3]; Homo sapiens, DLD-1): ~2500 nM | potency in BRCA2-null cells compared with RTx-161 [3]: slightly reduced potency

IC50 [1]: 6.9 nM
Compound: Nc1ccc(C#CCN(C(=O)Cc2ncc(C(F)(F)F)cc2C(F)(F)F)c2ccc(F)cc2)nn1 [RP6685, reference compound]
Average (colonies) ([2]; 0.375 uM, block 1 of sheet): 72.6667 | Average (colonies) ([2]; 0.375 uM, block 2 of sheet): 75 | Average (colonies) ([2]; 0.375 uM, block 3 of sheet): 87 | Average (colonies) ([2]; 0.375 uM, block 4 of sheet): 63.6667 | Average (colonies) ([2]; 0.75 uM, block 1 of sheet): 55.3333 | Average (colonies) ([2]; 0.75 uM, block 2 of sheet): 76 | Average (colonies) ([2]; 0.75 uM, block 3 of sheet): 85.6667 | Average (colonies) ([2]; 0.75 uM, block 4 of sheet): 65.6667 | Average (colonies) ([2]; 1.5 uM, block 1 of sheet): 59.3333 | Average (colonies) ([2]; 1.5 uM, block 2 of sheet): 75 | Average (colonies) ([2]; 1.5 uM, block 3 of sheet): 80 | Average (colonies) ([2]; 1.5 uM, block 4 of sheet): 63.3333 | Average (colonies) ([2]; 3 uM, block 1 of sheet): 73 | Average (colonies) ([2]; 3 uM, block 2 of sheet): 75.6667 | Average (colonies) ([2]; 3 uM, block 3 of sheet): 85.6667 | Average (colonies) ([2]; 3 uM, block 4 of sheet): 65.6667 | Average (colonies) ([2]; 6 uM, block 1 of sheet): 74 | Average (colonies) ([2]; 6 uM, block 2 of sheet): 74.3333 | Average (colonies) ([2]; 6 uM, block 3 of sheet): 84 | Average (colonies) ([2]; 6 uM, block 4 of sheet): 64 | Average (colonies) ([2]; 12 uM, block 1 of sheet): 60.6667 | Average (colonies) ([2]; 12 uM, block 2 of sheet): 75 | Average (colonies) ([2]; 12 uM, block 3 of sheet): 81 | Average (colonies) ([2]; 12 uM, block 4 of sheet): 64.3333 | Average (colonies) ([3]; 0.375 uM, block 1 of sheet): 44.6667 | Average (colonies) ([3]; 0.375 uM, block 2 of sheet): 14.6667 | Average (colonies) ([3]; 0.375 uM, block 3 of sheet): 52 | Average (colonies) ([3]; 0.375 uM, block 4 of sheet): 52 | Average (colonies) ([3]; 0.75 uM, block 1 of sheet): 42.3333 | Average (colonies) ([3]; 0.75 uM, block 2 of sheet): 10.3333 | Average (colonies) ([3]; 0.75 uM, block 3 of sheet): 48.3333 | Average (colonies) ([3]; 0.75 uM, block 4 of sheet): 49.6667 | Average (colonies) ([3]; 1.5 uM, block 1 of sheet): 34 | Average (colonies) ([3]; 1.5 uM, block 2 of sheet): 7.333 | Average (colonies) ([3]; 1.5 uM, block 3 of sheet): 43.6667 | Average (colonies) ([3]; 1.5 uM, block 4 of sheet): 41.6667 | Average (colonies) ([3]; 3 uM, block 1 of sheet): 34.3333 | Average (colonies) ([3]; 3 uM, block 2 of sheet): 4 | Average (colonies) ([3]; 3 uM, block 3 of sheet): 33.6667 | Average (colonies) ([3]; 3 uM, block 4 of sheet): 36.3333 | Average (colonies) ([3]; 6 uM, block 1 of sheet): 30 | Average (colonies) ([3]; 6 uM, block 2 of sheet): 4 | Average (colonies) ([3]; 6 uM, block 3 of sheet): 31 | Average (colonies) ([3]; 6 uM, block 4 of sheet): 28 | Average (colonies) ([3]; 12 uM, block 1 of sheet): 25 | Average (colonies) ([3]; 12 uM, block 2 of sheet): 2 | Average (colonies) ([3]; 12 uM, block 3 of sheet): 21.3333 | Average (colonies) ([3]; 12 uM, block 4 of sheet): 9.333 | IC50 [3]: ~4500 nM | potency in BRCA2-null cells compared with RTx-161 [3]: slightly reduced potency
